According to patent publication US20240245674A1, “DIAGNOSTIC METHODS AND COMPOSITIONS FOR TREATMENT OF CANCER” (LINNAEUS THERAPEUTICS, INC., priority 2021, published 2024):

Legend:
Type in all cases: in vivo, human
[1] = LNS8801 pharmacokinetics in patients with advanced cancer (plasma concentration by mass spectrometry)
Procedure: Patients with advanced cancer were dosed with 10, 40, and 125 mg of LNS8801 in a capsule on three consecutive days/week. Blood was collected from patients pre-dose and at 0.5, 1, 2, 4, 7, 10, and 24 hours after dosing. Samples were analyzed by mass spectrometry for the concentration of LNS8801. […] LNS8801 is well absorbed, producing plasma exposures that are predicted to be efficacious, even at the lowest dose evaluated. Half-life in humans is approximately 10 hours.

[2] = tested on: c-Myc positive tumor cells; experiment: c-Myc immunohistochemistry on pre- and on-treatment tumor biopsies; conditions: on-treatment biopsies 8-19 days after start vs pre-treatment; most samples
Excerpt: Pre-treatment biopsies were collected within 28 days of initiating treatment, and on-treatment biopsies were collected 8-19 days after LNS8801 treatment began. Tumor samples were formalin-fixed, paraffin-embedded, sectioned, and assessed for c-Myc positive tumor cells by immunohistochemistry by a blinded pathologist.

[3] = tested on: prolactin (systemic marker of GPER activity); experiment: Prolactin induction in blood of patients after LNS8801 dosing, versus best RECIST response
Procedure: Blood was collected from patients pre-dose and at 0.5, 1, 2, 4, 7, and 10 hours after dosing and analyzed for the concentration of prolactin. Prolactin induction was calculated by dividing the average of the 4 hour through 10 hour timepoints by the average of pre-dose to 2 hour timepoints. Prolactin-induction was plotted with the best RECIST response of target lesions, and linear regression was performed.
Blood was collected from patients pre-dose and 0.5, 1, 2, 4, 7, and 10 hours after dosing and analyzed for the concentration of prolactin (PRLX). Prolactin induction was calculated by dividing the average of the 4 hour through 10 hour timepoints by the average of pre-dose to 2 hour timepoints.

## CC(=O)c1ccc2c(c1)[C@@H]1C=CC[C@@H]1[C@H](c1cc3c(cc1Br)OCO3)N2 [LNS8801, 1-((3aS,4R,9bR)-4-(6-bromobenzo[d][1,3]dioxol-5-yl)-3a,4,5,9b-tetrahydro-3H-cyclopenta[c]quinolin-8-yl)ethan-1-one]
[1]; 10, 40, 125 mg capsule
  Absorption / plasma exposure: well absorbed
[1]; human, plasma, oral, humans, 10, 40, 125 mg capsule, three consecutive days/week
  half-life: ~10 h
[2]
  Change in c-Myc positive tumor cells after treatment: dramatic depletion in c-Myc positive tumor cells
[3]; evaluable patients, every such patient had progressive disease
  Patients lacking a prolactin response (<1.25-fold induction): 35%
[3]; patients with progressive disease under RECIST
  Change in prolactin levels on treatment: reduction or no change in prolactin levels
